According to US20230149507A1, “TREATMENT OF ALT CANCERS” (INSTITUTO DE MEDICINA MOLECULAR JOÃO LOBO ANTUNES, priority 2019, published 2023):

Tests used:
U-2 OS cells [1] = assay: Fragile telomeres in cells overexpressing FANCM variants; type: cell-based, human; settings: stable overexpression
Source text: (§1) (a) Schematic of FANCM domain interactions, mutations or deletions. For clarity, domains have been color coded by functional role (bottom panel). (b) Quantitation of metaphase-TIFs in U-2 OS cells stably overexpressing wild-type (FANCM+) or FANCM mutants. Scatterplot bars represent the mean±SEM. Out of 3 experiments, n≥110 metaphases scored for each mutant, *p<0.05, **p<0.005, Mann-Whitney test. (c) Quantitation of fragile telomeres in U-2 OS cells stably overexpressing wild-type (FANCM+) or FANCM mutants. Scatterplot bars represent the mean±SEM. Out of 3 experiments, n>100 metaphases scored for each mutant, *p<0.05, **p<0.005, Mann-Whitney test. (d) Representative dot blots and quantitation of C-circle assays in U-2 OS cells stably overexpressing wild-type (FANCM+) or FANCM domain mutants. C-circles were normalized to the mean of vector control. Error bars represent mean±SEM from n=3 experiments, *p<0.05, **p<0.005, Student's t-test. (e) Single molecule analysis of telomeric extension events (top panel) and length of extension events (bottom panel) in U-2 OS cells stably overexpressing wild-type (FANCM+) or FANCM domain mutants. Error bars represent mean±SEM of n≥350 fibers out of 3 experiments, *p<0.05, **p<0.005, Student's t-test.
(§2) Empty vector and wild-type FANCM (pCMV6-Myc-DDK) constructs were obtained from Origene Technologies. Wild type FANCM (SEQ ID NO: 2) and FANCM mutants (SEQ ID NOs: 19 to 28) were cloned into the pLenti-C-Myc-DDK-IRES-Neo backbone (Origene Technologies) by restriction enzyme subcloning of gene blocks synthesized by Integrated DNA Technologies (IDT). Lentivirus was produced by the Vector and Genome Engineering Facility (Children's Medical Research Institute). For stable overexpression, cells were transduced with lentivirus, allowed to recover for 24 h, and subject to G418 selection. Cells were maintained in G418 to ensure sustained overexpression.
Indirect IF and telomere FISH were performed on both interphase nuclei and metaphase spreads. For interphase IF experiments, cells were grown on coverslips or LabTek chamber slides (Thermo Scientific). Slides were prepared as described in Sobinoff et al., 2017. Cells on coverslips were washed twice with PBS, permeabilized with KCM buffer (120 mM KCl, 20 mM NaCl, 10 mM Tris pH 7.5, 0.1% Triton), washed again with PBST and PBS, then fixed with ice-cold 4% formaldehyde PBS solution at room temperature for 10 min. Coverslips were blocked with antibody-dilution buffer (20 mM Tris-HCl, pH 7.5, 2% (w/v) BSA, 0.2% (v/v) fish gelatin, 150 mM NaCl, 0.1% (v/v) Triton X-100 and 0.1% (w/v) sodium azide) and 0.1 mg/ml RNaseA for 30 min at 37° C. […]

U-2 OS cells [2] = assay: Metaphase-TIFs in cells overexpressing FANCM variants; type: cell-based, human; settings: stable overexpression
Source text: as §1
FIG. 23. Defects in ALT phenotype suppression are exacerbated by overexpression of a double-mutant (DM) FANCM, in which both the MM2 domain (FF>AA) and the translocase domain (K117R) of FANCM are mutated. (a) Representative dot blots and quantitation of C-circle assays in U-2 OS cells stably overexpressing wild-type (WT) or FANCM domain mutants (K117R, FF>AA; DM). C-circles were normalized to the mean of empty vector control (EV). Error bars represent mean±SEM from n=3 experiments, *p<0.05, **p<0.005, Student's t-test. (b) Quantitation of APB frequency in U-2 OS cells overexpressing wild-type (WT) or FANCM mutants. Scatterplot bars represent the mean±SEM. Out of three experiments, n=150 cells were scored for each mutant, **p<0.005, Mann-Whitney test. (c) Quantitation of metaphase-TIFs in U-2 OS cells stably overexpressing wild-type (WT) or FANCM mutants. Scatterplot bars represent the mean±SEM. Out of three experiments, n=120 metaphases scored for each mutant, *p<0.05, **p<0.005, Mann-Whitney test. All statistical comparisons are relative to EV control.
as §2
Indirect IF and telomere FISH were performed on both interphase nuclei and metaphase spreads. For interphase IF experiments, cells were grown on coverslips or LabTek chamber slides (Thermo Scientific). Slides were prepared as described in Sobinoff et al., 2017. Cells on coverslips were washed twice with PBS, permeabilized with KCM buffer (120 mM KCl, 20 mM NaCl, 10 mM Tris pH 7.5, 0.1% Triton), washed again with PBST and PBS, then fixed with ice-cold 4% formaldehyde PBS solution at room temperature for 10 min. […]

K117R: FANCM mutant (SEQ ID NO: 20) substituted at K117R, DEAH domain disrupted
number of fragile telomeres (telomere fragility) (U-2 OS cells [1]): failed to suppress the phenotypes
telomere dysfunction (metaphase-TIFs) (U-2 OS cells [2]): failed to suppress the phenotypes

FF>AA: FANCM mutant (SEQ ID NO: 25), double substitution F1232A/F1236A within the MM2 domain
number of fragile telomeres (telomere fragility) (U-2 OS cells [1]): significantly increased
telomere dysfunction (metaphase-TIFs) (U-2 OS cells [2]): significantly increased
